The subject of test [1] is TGF-β-stimulated SMAD3 phosphorylation in BEAS-2B cells. Briefly: Cellular ALK5 potency assay, inhibition of TGF-β stimulated pSMAD3 formation in BEAS-2B cells. The format is cell-based. As to conditions: Homo sapiens; inhibition of TGF-β stimulated pSMAD3 formation, BEAS-2B cells; read-out: BEAS2B pIC50 (converted). Summed up:
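BEAS-2B human lung epithelial cells, seeded overnight, were pre-treated with compound in HBSS/25 mM HEPES/1% BSA for 1 h at 37 °C, then stimulated with TGF-β (final 10 ng/mL) for 30 min. Lysates were assayed for pSMAD3 by AlphaLISA; pIC50 came from dose-dependent signal change versus TGF-β-stimulated untreated cells.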

In test [2] the target is T1, recombinant human ALK5 (TGF-βR1) protein (Homo sapiens, UniProt P36897).
T1 construct: purchased Life Technologies PR9075A
T1 sequence (P36897 34-503): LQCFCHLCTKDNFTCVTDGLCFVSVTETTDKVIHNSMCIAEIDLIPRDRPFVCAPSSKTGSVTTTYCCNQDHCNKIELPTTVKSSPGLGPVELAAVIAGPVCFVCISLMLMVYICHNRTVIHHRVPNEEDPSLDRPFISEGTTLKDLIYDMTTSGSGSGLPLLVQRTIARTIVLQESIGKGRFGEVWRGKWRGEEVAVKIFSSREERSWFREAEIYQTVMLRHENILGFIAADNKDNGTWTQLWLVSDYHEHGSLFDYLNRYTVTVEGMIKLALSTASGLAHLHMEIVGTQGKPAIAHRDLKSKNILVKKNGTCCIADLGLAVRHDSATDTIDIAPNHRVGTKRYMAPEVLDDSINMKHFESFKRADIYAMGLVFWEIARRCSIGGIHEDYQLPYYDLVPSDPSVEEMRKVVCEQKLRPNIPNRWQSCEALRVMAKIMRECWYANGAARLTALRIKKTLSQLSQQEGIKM
Put plainly: Biochemical ALK5 (TGF-βR1) assay to measure pKi (LANCE Ultra ULight kinase assay). Conditions: apparent pKi from pIC50 by Cheng-Prusoff, read-out: ALK5 pKi (converted). A digest of the protocol: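 Dose range 10 μM–25 pM; enzyme + compound 60 min RT; ATP added (5× stock 125 μM, 2 mM DTT); 60 min 37 °C; stop with EDTA + Eu anti-phospho-Topo IIα Thr1342 Ab; TR-FRET ex 320/340, em 665 nm. 4-param pIC50 → pKi (Cheng-Prusoff).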

This is an account of results in patent US11590116B2 (THERAVANCE BIOPHARMA R&D IP, LLC, priority 2019, dated 2023).

Molecules are shown by their SMILES.

Consider `Cc1cccc(-c2[nH]cnc2-c2ccc3ncc(-c4ccc5c(c4)CCC5N)cc3c2)n1` (stereo not shown) [Compound 275, 5-[6-[5-(6-methyl-2-pyridyl)-1H-imidazol-4-yl]-3-quinolyl]indan-1-amine], for which the IC50 in test [1] is 25.1 to 158 nM. Moreover, the Ki in test [2] is 0.0398 to 0.316 nM.
On to `Cc1cccc(-c2[nH]cnc2-c2ccc3ncc(C(=O)O[C@H]4CC[C@@H](N)CC4)cc3c2)n1` [Compound 1066, (4-aminocyclohexyl) 6-[5-(6-methyl-2-pyridyl)-1H-imidazol-4-yl]quinoline-3-carboxylate], for which, in test [1], the IC50 was 200 to 1260 nM. For the same compound, the Ki in test [2] is 0.398 to 3.16 nM.
As to `Cc1cccc(-c2n[nH]cc2-c2ccc3ncc(-c4nc(C(N)=O)co4)cc3n2)n1` [Compound 480, 2-[6-[3-(6-methyl-2-pyridyl)-1H-pyrazol-4-yl]-1,5-naphthyridin-3-yl]oxazole-4-carboxamide], the IC50 in test [1] is 25.1 to 158 nM. Besides, the Ki in test [2] was 0.0398 to 0.316 nM.
`CCNC(=O)C1CCN(CCNc2cnc3ccc(-c4nc[nH]c4-c4cccc(C)n4)cc3c2)CC1` [Compound 643, N-ethyl-1-[2-[[6-[5-(6-methyl-2-pyridyl)-1H-imidazol-4-yl]-3-quinolyl]amino]ethyl]piperidine-4-carboxamide]: the IC50 in test [1] is 25.1 to 158 nM. For the same compound, the Ki in test [2] was 0.398 to 3.16 nM.
With `Cc1cccc(-c2[nH]ncc2-c2ccc3ncc(C(=O)O[C@H]4CC[C@@](C)(N)CC4)cc3c2)n1` [Compound 1177, (4-amino-4-methyl-cyclohexyl) 6-[5-(6-methyl-2-pyridyl)-1H-pyrazol-4-yl]quinoline-3-carboxylate], the IC50 in test [1] was 25.1 to 158 nM. Moreover, the Ki in test [2] is 0.0398 to 0.316 nM.
With `Cc1cccc(-c2[nH]cnc2-c2ccc3ncc(-c4cnc5c(c4)CNC5)cc3c2)n1` [Compound 443, 3-(6,7-dihydro-5H-pyrrolo[3,4-b]pyridin-3-yl)-6-[5-(6-methyl-2-pyridyl)-1H-imidazol-4-yl]quinoline], the IC50 in test [1] is 25.1 to 158 nM. Moreover, the Ki in test [2] was 0.0398 to 0.316 nM.
The corresponding values for `Cc1cccc(-c2n[nH]cc2-c2ccc3ncc(-c4nc(CO)co4)cc3n2)n1` [Compound 32, [2-[6-[3-(6-methyl-2-pyridyl)-1H-pyrazol-4-yl]-1,5-naphthyridin-3-yl]oxazol-4-yl]methanol] are 25.1 to 158 nM and under 0.0316 nM.
The corresponding values for `Cc1cccc(-c2[nH]ncc2-c2ccc3ncc(C(=O)OCCN4CCNCC4)cc3n2)n1` [Compound 277, 2-piperazin-1-ylethyl 6-[5-(6-methyl-2-pyridyl)-1H-pyrazol-4-yl]-1,5-naphthyridine-3-carboxylate] are 200 to 1260 nM and 0.0398 to 0.316 nM.
In the case of `Cc1cccc(-c2n[nH]cc2-c2ccc3ncc(C4=CCC(NCc5ccccc5)CC4)cc3n2)n1` (stereo not shown) [Compound 502, N-benzyl-4-[6-[3-(6-methyl-2-pyridyl)-1H-pyrazol-4-yl]-1,5-naphthyridin-3-yl]cyclohex-3-en-1-amine], in test [1], the IC50 was 25.1 to 158 nM. Besides, in test [2], the Ki is under 0.0316 nM.
With `Cc1cccc(-c2[nH]cnc2-c2ccc3ncc(-c4cn[nH]c4)cc3c2)n1` [Compound 430, 6-[5-(6-methyl-2-pyridyl)-1H-imidazol-4-yl]-3-(1H-pyrazol-4-yl)quinoline], the IC50 in test [1] is under 20 nM. The Ki in test [2] is under 0.0316 nM.
The corresponding values for `Cc1cccc(-c2n[nH]cc2-c2ccc3ncc(C(N)=O)cc3n2)n1` [Compound 607, 6-[3-(6-methyl-2-pyridyl)-1H-pyrazol-4-yl]-1,5-naphthyridine-3-carboxamide] are 25.1 to 158 nM and 0.0398 to 0.316 nM.
Regarding `Cc1nc(-c2nc3ccccn3c2-c2ccc3ncc(-c4nc5n(n4)CCNC5)cc3n2)ccc1F` [Compound 447, 2-[2-(5-fluoro-6-methyl-2-pyridyl)imidazo[1,2-a]pyridin-3-yl]-7-(5,6,7,8-tetrahydro-[1,2,4]triazolo[1,5-a]pyrazin-2-yl)-1,5-naphthyridine], the IC50 in test [1] was 25.1 to 158 nM. For the same compound, the Ki in test [2] is 0.0398 to 0.316 nM.
With `Cc1cccc(-c2[nH]cnc2-c2ccc3ncc(C(=O)OCCCC4CCNCC4)cc3c2)n1` [Compound 1132, 3-(4-piperidyl)propyl 6-[5-(6-methyl-2-pyridyl)-1H-imidazol-4-yl]quinoline-3-carboxylate], the IC50 in test [1] is 25.1 to 158 nM. The Ki in test [2] is 0.0398 to 0.316 nM.
On to `Cc1cccc(-c2n[nH]cc2-c2ccc3ncc(-c4cccc(C(=O)O)c4)cc3n2)n1` [Compound 172, 3-[6-[3-(6-methyl-2-pyridyl)-1H-pyrazol-4-yl]-1,5-naphthyridin-3-yl]benzoic acid], for which the IC50 in test [1] is 1580 to 10000 nM. Besides, the Ki in test [2] is under 0.0316 nM.
The corresponding values for `CNCCn1cc(-c2cnc3ccc(-c4nn[nH]c4-c4cccc(C)n4)nc3c2)cn1` [Compound 29, N-methyl-2-(4-(6-(5-(6-methylpyridin-2-yl)-1H-1,2,3-triazol-4-yl)-1,5-naphthyridin-3-yl)-1H-pyrazol-1-yl)ethan-1-amine] are 200 to 1260 nM and under 0.0316 nM.
Take `Cc1cccc(-c2[nH]cnc2-c2ccc3ncc(-c4cccc(C(=O)OCCN5CCNCC5)n4)cc3c2)n1` [Compound 1151, 2-piperazin-1-ylethyl 6-[6-[5-(6-methyl-2-pyridyl)-1H-imidazol-4-yl]-3-quinolyl]pyridine-2-carboxylate]: the IC50 in test [1] was 200 to 1260 nM. Besides, the Ki in test [2] was 0.0398 to 0.316 nM.
For the compound `Cc1cccc(-c2[nH]ncc2-c2ccc3ncc(C(=O)OCCN4CCCCC4)cc3c2)n1` [Compound 1173, 2-(1-piperidyl)ethyl 6-[5-(6-methyl-2-pyridyl)-1H-pyrazol-4-yl]quinoline-3-carboxylate], the IC50 in test [1] is 25.1 to 158 nM. The Ki in test [2] was 0.0398 to 0.316 nM.
Regarding `Cc1nc(-c2nc3ccccn3c2-c2ccc3ncc(N4CCC(N5CCN(C)CC5)CC4)cc3n2)ccc1F` [Compound 47, 2-[2-(5-fluoro-6-methyl-2-pyridyl)imidazo[1,2-a]pyridin-3-yl]-7-[4-(4-methylpiperazin-1-yl)-1-piperidyl]-1,5-naphthyridine], the IC50 in test [1] is 200 to 1260 nM. Further, the Ki in test [2] is 0.0398 to 0.316 nM.
As for `Cc1cccc(-c2[nH]nnc2-c2ccc3ncc(N4CCNCC4)cc3c2)n1` [Compound 409, 6-[5-(6-methyl-2-pyridyl)-1H-triazol-4-yl]-3-piperazin-1-yl-quinoline], the IC50 in test [1] is 25.1 to 158 nM. Also, the Ki in test [2] was 0.0398 to 0.316 nM.
For the compound `Cc1cccc(-c2[nH]cnc2-c2ccc3ncc(Nc4ccc(N5CCN(C(C)C)CC5)cn4)cc3n2)n1` [Compound 695, N-[5-(4-isopropylpiperazin-1-yl)-2-pyridyl]-6-[5-(6-methyl-2-pyridyl)-1H-imidazol-4-yl]-1,5-naphthyridin-3-amine], in test [1], the IC50 is 25.1 to 158 nM. Besides, the Ki in test [2] was 0.0398 to 0.316 nM.
Consider `Cc1cccc(-c2[nH]cnc2-c2ccc3ncc(-c4cccc(C(=O)OC5CNC5)c4)cc3c2)n1` [Compound 197, azetidin-3-yl 3-[6-[5-(6-methyl-2-pyridyl)-1H-imidazol-4-yl]-3-quinolyl]benzoate], for which the IC50 in test [1] is 25.1 to 158 nM. Besides, the Ki in test [2] is 0.0398 to 0.316 nM.
Take `Cc1cccc(-c2[nH]cnc2-c2ccc3ncc(-c4ccccn4)cc3c2)n1` [Compound 367, 6-[5-(6-methyl-2-pyridyl)-1H-imidazol-4-yl]-3-(2-pyridyl)quinoline]: the IC50 in test [1] was 25.1 to 158 nM. Moreover, the Ki in test [2] was 0.0398 to 0.316 nM.
Regarding `Cc1nc(-c2n[nH]cc2-c2ccc3ncc(-c4cc5n(n4)CCNC5)cc3n2)ccc1F` [Compound 391, 2-[3-(5-fluoro-6-methyl-2-pyridyl)-1H-pyrazol-4-yl]-7-(4,5,6,7-tetrahydropyrazolo[1,5-a]pyrazin-2-yl)-1,5-naphthyridine], the IC50 in test [1] is under 20 nM. Besides, the Ki in test [2] was under 0.0316 nM.
`CNC1CCN(c2cnc3ccc(-c4c[nH]nc4-c4cccc(C)n4)nc3c2)CC1` [Compound 45, N-methyl-1-[6-[3-(6-methyl-2-pyridyl)-1H-pyrazol-4-yl]-1,5-naphthyridin-3-yl]piperidin-4-amine]: in test [1], the IC50 was 25.1 to 158 nM. Moreover, the Ki in test [2] was under 0.0316 nM.
Turning to `Cc1cccc(-c2[nH]cnc2-c2ccc3ncc(-c4ccc(C(=O)OCCN5CCN6CCCC6C5)cn4)cc3c2)n1` (stereo not shown) [Compound 1212, 2-(3,4,6,7,8,8a-hexahydro-1H-pyrrolo[1,2-a]pyrazin-2-yl)ethyl 6-[6-[5-(6-methyl-2-pyridyl)-1H-imidazol-4-yl]-3-quinolyl]pyridine-3-carboxylate], the IC50 in test [1] is 25.1 to 158 nM. The Ki in test [2] is 0.0398 to 0.316 nM.
For the compound `Cc1cccc(-c2[nH]cnc2-c2ccc3ncc(-c4ccc(C(=O)OCCN5CCNCC5)nc4)cc3c2)n1` [Compound 1054, 2-piperazin-1-ylethyl 5-[6-[5-(6-methyl-2-pyridyl)-1H-imidazol-4-yl]-3-quinolyl]pyridine-2-carboxylate], in test [1], the IC50 was 200 to 1260 nM. Besides, the Ki in test [2] was 0.0398 to 0.316 nM.
